{"source": "patent US9586985B2", "about": "“Organic compounds as proantigens for natural killer T cells” (Callaghan Innovation Research Limited, priority 2012, dated 2017)", "key": {"[1]": {"system": "cytokines IL-12p70, IL-4 and IFN-g", "assay": "Cytokine release into serum after injection (cytokine bead array)", "type": "in vivo, C57BL/6 mice", "method": "Groups of C57BL/6 mice (n=3 per group) are injected intravenously with 200 ng of the indicated compounds, and then the serum is collected at the indicated times for analysis of cytokine levels by cytokine bead array technology.\nGroups of C57BL/6 mice (n=3 per group) are injected intravenously with 200 ng of α-GalCer or an equivalent molar amount of the indicated compounds, and then the serum is collected at the indicated times for analysis of cytokine levels by cytokine bead array technology. (Compound CN158A1b=CN158 formulated in accordance with Example 15; Compound CN158A=CN158 in water.)\nBlood is collected from the lateral tail vein at different time intervals after glycolipid administration. Serum is collected after blood has clotted, and levels of cytokines IL-12p70, IL-4 and IFN-g are assessed by cytokine bead array technology (Bioplex, Biorad), according to the manufacturer's instructions."}, "B16.OVA melanoma cells": {"system": "B16.OVA melanoma cells", "assay": "Anti-tumour activity against subcutaneous B16.OVA tumours, given with OVA protein", "type": "in vivo, C57BL/6 mice", "settings": "i.v. with 200 μg OVA protein seven days after tumour challenge", "method": "Progression of subcutaneous B16.OVA tumours is monitored in animals that are treated seven days after tumour challenge with intravenous OVA protein together with the indicated compounds, or treated with PBS. The mean tumour sizes per group (n=5)±SEM are shown.\nProgression of subcutaneous B16.OVA tumours is monitored in animals that are treated seven days after tumour challenge with intravenous OVA protein together with the indicated compounds, or treated with PBS. The mean tumour sizes per group (n=5)±SEM are shown. […] (Compound CN158A=CN158 in water.)\nGroups of C57BL/6 mice (n=5) receive a subcutaneous injection into the flank of 1×10^5 B16.OVA melanoma cells, which express a cDNA encoding the chicken ovalbumin (OVA) sequence. The different groups are treated 7 days later, when tumours are fully engrafted, by intravenous injection of one of the following; 200 μg OVA protein together with 200 ng α-GalCer, 200 μg OVA protein together with 200 ng of a compound of the invention, or PBS. Mice are monitored for tumour growth every 3-4 days, and tumour size for each group is calculated as the mean of the products of bisecting diameters (±SEM). Measurements are terminated for each group when the first animal develops a tumour exceeding 200 mm^2."}, "human NKT cells": {"system": "human NKT cells", "assay": "Proliferation of human NKT cells in PBMC culture", "type": "cell-based", "settings": "7 days culture with IL-2, one donor, FIG. 6", "method": "PBMC from one donor are cultured for 7 days with different doses of the indicated compounds in the presence of IL-2, and then the percentages of NKT cells in the final cultures determined by flow cytometry with fluorescent α-GalCer-loaded CD1d tetramers and anti-CD3. Data are expressed as percentage of NKT cells (α-GalCer/CD1d tetramer and anti-CD3-binding cells) of total T cells (all anti-CD3-binding cells).\nPeripheral blood is drawn into heparinized tubes, diluted 1:1 in PBS, and layered over a sodium diatrizoate and polysaccharide solution (Lymphoprep; Axis-Shield, Oslo, Norway) before centrifugation at 800×g for 25 minutes at room temperature to collect the peripheral blood mononuclear cell (PBMC) fraction, which contains NKT cells. To assess proliferation of NKT cells, PBMC (2×10^5 per well) are cultured at 37° C. in Iscove's Modified Dulbecco's Medium with 5% human AB serum and the indicated concentrations of α-GalCer, or the compounds of the invention, with recombinant human IL-2 50 U/mL (Chiron Corporation, Emeryville, Calif.) added after 24 hours. After 7 days of culture, the cells are analysed by flow cytometry, using fluorescent soluble CD1d tetramers that have been loaded with α-GalCer to identify the NKT cells. […]"}, "[2]": {"assay": "HPLC-ESI-MSMS quantification of α-GalCer in test samples", "type": "physicochemical", "settings": "freshly reconstituted formulated sample; estimated maximum level", "method": "Quantification of the amount of α-GalCer in various test samples of compounds of the invention is made by HPLC-ESI-MSMS analysis using a Waters 2795 HPLC and a Waters Q-TOF Premier™ Tandem Mass Spectrometer. The chromatography used a Phenomenex Kinetex C18 […] 3.0×50 mm column eluting with isocratic methanol containing 10 mM ammonium formate+0.5% formic acid at a flow rate of 0.2 mL/min. α-GalCer is monitored by selective reactant monitoring of 858.7 to 696.7 Da. The estimate of amount of α-GalCer is made by comparison of ion count integrals to a standard curve run on the same day or by comparison to test samples spiked with a known amount of α-GalCer.\nThe level of α-GalCer is determined on freshly reconstituted formulated samples unless otherwise stated. The estimated maximum level of α-GalCer for key compounds is given below."}}, "data": [{"molecule": "CCCCCCCCCCCCCCCCCCCCCCCCCC(=O)O[C@H](CCCCCCCCCCCCCC)[C@@H](O)[C@H](CO[C@H]1O[C@H](CO)[C@H](O)[C@H](O)[C@H]1O)NC(=O)OCOC(=O)C(C)(C)C", "note": "[CN145, (2S,3S,4R)-1-O-α-D-Galactopyranosyl-4-O-hexacosanoyl-2-(pivaloyloxymethoxycarbonylamino) octadecane-1,3,4-triol]", "values": [{"measurement": "cytokine profile in vivo compared to α-GalCer", "setting": "[1]; 200 ng i.v. or molar equivalent, FIGS. 3 and 8", "value": "different cytokine profiles"}, {"measurement": "course of IL-12p70 level in serum", "setting": "[1]; 200 ng i.v., FIG. 3", "value": "still increasing through 6 to 12 h"}, {"measurement": "ratio of IFN-γ to IL-4 in serum compared to α-GalCer", "setting": "[1]; 200 ng i.v., FIG. 3", "value": "higher ratio of IFN-γ to IL-4 than that of α-GalCer"}, {"measurement": "overall levels of systemic cytokine production", "setting": "[1]; 200 ng α-GalCer or equivalent i.v., FIGS. 3 and 8", "value": "not as potent as α-GalCer in terms of overall levels of cytokine production"}, {"measurement": "anti-tumour activity: growth of established B16.OVA tumours", "setting": "B16.OVA melanoma cells", "value": "equally beneficial in promoting immune responses that suppress growth of established tumours"}, {"measurement": "expansion of human NKT cells from PBMC", "setting": "human NKT cells", "value": "able to induce the expansion of human NKT cells"}, {"measurement": "Max α-GalCer (ppm)", "setting": "[2]", "value": 40, "unit": "ppm"}, {"measurement": "Max α-GalCer/injection", "setting": "[2]", "value": 0.008, "unit": "ng"}]}]}
